Source: patent US7615536B2, “1,4-benzothiazepine 1,1-dioxide derivative, process for its preparation, medicaments comprising this compound, and use thereof as a hypolipidaemic” (Sanofi-Aventis Deutschland GmbH, priority 2005, dated 2009)

Target: T1, recombinantly expressed human sodium-dependent ileal bile acid transporter (IBAT, ASBT, SLC10A2) (Homo sapiens, UniProt Q12908)
T1 construct: Bases 599 to 1645 correspond to the complete coding region of the human IBAT; expressed in transfected cells
T1 sequence (Q12908 1-348): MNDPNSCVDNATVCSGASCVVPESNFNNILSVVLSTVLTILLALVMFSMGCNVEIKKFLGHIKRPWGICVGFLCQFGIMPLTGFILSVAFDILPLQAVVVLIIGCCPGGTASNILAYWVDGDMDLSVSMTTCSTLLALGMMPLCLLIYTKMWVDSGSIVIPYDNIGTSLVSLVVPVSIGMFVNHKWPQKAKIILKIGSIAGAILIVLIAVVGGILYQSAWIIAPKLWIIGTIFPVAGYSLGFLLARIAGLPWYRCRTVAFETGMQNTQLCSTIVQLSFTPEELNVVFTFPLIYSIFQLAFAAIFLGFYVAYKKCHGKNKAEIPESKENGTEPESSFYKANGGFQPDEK
Assay: in vitro IBAT inhibition test ([3H]-taurocholic acid uptake into CHO-hIBAT cells)
Format: cell-based
Procedure: Biological testing of the compound A according to the invention was carried out using the in vitro IBAT inhibition test. This test examines the effect of the compound according to the invention on the transport activity of the recombinantly expressed human sodium-dependent ileal bile acid transporter (IBAT=ileal Na^+/bile acid contransporter, ASBT=apical sodium-dependent bile acid transporter, SLC10A2=solute carrier family 10, member 2).
Preparation for and practice of the in vitro IBAT inhibition test:
1. Cloning of an Expression Vector for Human IBAT […]
CHO-hIBAT cells were sown at a concentration of 40 000 cells per well in cell culture medium in poly-D-lysine-coated 96-well plates and cultivated for 24h. […] Finally, 100 μL of scintillation fluid were added to each well, and the radioactivity taken up into the cells was determined in a MicroBeta scintillation microplate reader from Wallac.
The half-maximal inhibitory effect of the test compound (IC50 value, inhibitory concentration 50) was determined as follows:
• 1. […] This is the value measured in the absence of substance, measured in sodium-comprising transport assay buffer. • 2. […] This is the value measured in the absence of substance, measured in sodium-free transport assay buffer. • 3. […]

- IC50 (CHO-hIBAT cells, taurocholic acid 10 μM, 60 min at room temperature): 57 nM
- activity higher compared to comparative example from EP 1 169 313 (relative to compound 11a, from the IC50 (human IBAT) values): 560%
SMILES: CCCCC1(CCCC)CS(=O)(=O)c2ccc(N(C)C)cc2[C@@H](c2cccc(NC(=O)N[C@@H]3O[C@H](CO)[C@@H](O)[C@H](O)[C@H]3O)c2)N1 [Example A]
